Experimental data taken from ChEMBL document CHEMBL5528047, “A Potent SOS1 PROTAC Degrader with Synergistic Efficacy in Combination with KRASG12C Inhibitor” (J Med Chem, 2024).

Tests used:
[1] = biological target: T1, von Hippel-Lindau disease tumor suppressor/Son of sevenless homolog 1 (Homo sapiens, UniProt Q07889+P40337); assay: Protac activity at VHL/SOS1 in human PANC-1 cells assessed as SOS1 degradation at 10 uM by Western blotting analysis relative to control; type: cell-based
Target sequence in this assay (P40337 whole entry, looked up): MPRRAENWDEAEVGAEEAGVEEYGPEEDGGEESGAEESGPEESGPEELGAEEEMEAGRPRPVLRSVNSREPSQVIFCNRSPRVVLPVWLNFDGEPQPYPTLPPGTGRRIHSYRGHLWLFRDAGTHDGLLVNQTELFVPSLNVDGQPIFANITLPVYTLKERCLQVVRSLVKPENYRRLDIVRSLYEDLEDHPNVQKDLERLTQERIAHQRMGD
Target sequence in this assay (Q07889 whole entry, looked up): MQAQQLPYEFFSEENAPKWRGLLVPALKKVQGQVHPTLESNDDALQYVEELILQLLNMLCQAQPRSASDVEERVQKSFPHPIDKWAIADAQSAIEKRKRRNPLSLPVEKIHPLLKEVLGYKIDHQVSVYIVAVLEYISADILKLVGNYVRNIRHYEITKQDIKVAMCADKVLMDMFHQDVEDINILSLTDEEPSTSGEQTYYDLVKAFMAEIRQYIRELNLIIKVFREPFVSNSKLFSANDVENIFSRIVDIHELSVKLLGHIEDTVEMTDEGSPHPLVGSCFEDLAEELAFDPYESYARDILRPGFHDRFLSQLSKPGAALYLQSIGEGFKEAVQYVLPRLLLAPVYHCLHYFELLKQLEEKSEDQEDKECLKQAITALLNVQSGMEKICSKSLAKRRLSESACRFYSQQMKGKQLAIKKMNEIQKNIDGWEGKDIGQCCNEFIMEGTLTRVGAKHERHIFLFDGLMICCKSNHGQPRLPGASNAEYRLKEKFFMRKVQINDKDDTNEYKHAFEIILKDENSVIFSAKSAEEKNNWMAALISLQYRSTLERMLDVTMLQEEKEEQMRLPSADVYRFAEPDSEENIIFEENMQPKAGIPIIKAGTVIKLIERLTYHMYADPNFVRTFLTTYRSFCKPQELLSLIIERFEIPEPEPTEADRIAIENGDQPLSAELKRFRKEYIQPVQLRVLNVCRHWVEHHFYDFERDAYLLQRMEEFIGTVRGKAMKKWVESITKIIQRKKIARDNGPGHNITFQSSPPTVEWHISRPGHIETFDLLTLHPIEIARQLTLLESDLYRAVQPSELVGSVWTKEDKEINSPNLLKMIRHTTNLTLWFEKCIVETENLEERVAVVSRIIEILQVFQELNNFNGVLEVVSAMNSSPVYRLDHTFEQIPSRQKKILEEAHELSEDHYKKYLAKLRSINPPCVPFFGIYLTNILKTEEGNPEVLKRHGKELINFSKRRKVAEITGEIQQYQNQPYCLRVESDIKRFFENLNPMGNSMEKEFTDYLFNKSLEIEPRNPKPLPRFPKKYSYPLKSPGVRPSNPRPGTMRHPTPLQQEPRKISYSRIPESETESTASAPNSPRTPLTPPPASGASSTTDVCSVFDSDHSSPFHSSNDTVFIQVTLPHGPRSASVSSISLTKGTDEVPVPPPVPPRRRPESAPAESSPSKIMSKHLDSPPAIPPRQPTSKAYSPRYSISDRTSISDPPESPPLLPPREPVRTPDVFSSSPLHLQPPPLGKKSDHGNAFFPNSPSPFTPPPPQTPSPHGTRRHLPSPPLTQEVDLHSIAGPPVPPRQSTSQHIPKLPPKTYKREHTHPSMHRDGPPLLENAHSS

[2] = biological target: T1, von Hippel-Lindau disease tumor suppressor/Son of sevenless homolog 1; assay: Protac activity at VHL/SOS1 in human PANC-1 cells assessed as SOS1 degradation at 1 uM by Western blotting analysis relative to control; type: cell-based
Target sequence in this assay (P40337 whole entry, looked up): as the sequence (P40337 whole entry, looked up) above
Target sequence in this assay (Q07889 whole entry, looked up): as the sequence (Q07889 whole entry, looked up) above

[3] = biological target: T1, von Hippel-Lindau disease tumor suppressor/Son of sevenless homolog 1; assay: Protac activity at VHL/SOS1 in human K562 cells assessed as SOS1 degradation at 10 uM by Western blotting analysis relative to control; type: cell-based
Target sequence in this assay (P40337 whole entry, looked up): as the sequence (P40337 whole entry, looked up) above
Target sequence in this assay (Q07889 whole entry, looked up): as the sequence (Q07889 whole entry, looked up) above

[4] = biological target: T1, von Hippel-Lindau disease tumor suppressor/Son of sevenless homolog 1; assay: Protac activity at VHL/SOS1 in human K562 cells assessed as SOS1 degradation at 1 uM by Western blotting analysis relative to control; type: cell-based
Target sequence in this assay (P40337 whole entry, looked up): as the sequence (P40337 whole entry, looked up) above
Target sequence in this assay (Q07889 whole entry, looked up): as the sequence (Q07889 whole entry, looked up) above

[5] = test system: K562; assay: Antiproliferative activity against human K562 cells incubated for 72 hrs by CCK8 assay; type: functional, cell-based; conditions: K562, 72 h
[6] = test system: MIA PaCa-2; assay: Antiproliferative activity against human MIA PaCa-2 cells incubated for 72 hrs by CCK8 assay; type: functional, cell-based; conditions: MIA PaCa-2, 72 h
[7] = biological target: T2, Protein cereblon/Son of sevenless homolog 1 (Homo sapiens) (UniProt Q07889+Q96SW2); assay: Protac activity at CRBN/SOS1 in human K562 cells assessed as SOS1 degradation at 1 uM by Western blotting analysis relative to control; type: cell-based
T2 sequence (Q07889 whole entry, looked up): as above
T2 sequence (Q96SW2 whole entry, looked up): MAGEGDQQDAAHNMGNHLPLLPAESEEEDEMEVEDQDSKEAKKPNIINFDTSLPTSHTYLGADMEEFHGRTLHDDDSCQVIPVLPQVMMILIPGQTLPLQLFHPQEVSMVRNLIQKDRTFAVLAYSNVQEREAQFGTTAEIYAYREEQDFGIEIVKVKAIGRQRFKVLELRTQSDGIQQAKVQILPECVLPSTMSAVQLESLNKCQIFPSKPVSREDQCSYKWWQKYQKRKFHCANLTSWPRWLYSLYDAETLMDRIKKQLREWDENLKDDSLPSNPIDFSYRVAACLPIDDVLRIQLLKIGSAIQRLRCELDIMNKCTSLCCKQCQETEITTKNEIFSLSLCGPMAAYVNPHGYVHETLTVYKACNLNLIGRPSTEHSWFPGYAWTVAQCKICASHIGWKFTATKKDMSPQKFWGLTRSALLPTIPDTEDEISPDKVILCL

[8] = biological target: T2, Protein cereblon/Son of sevenless homolog 1 (Homo sapiens); assay: Protac activity at CRBN/SOS1 in human K562 cells assessed as SOS1 degradation at 10 uM by Western blotting analysis relative to control; type: cell-based
[9] = biological target: T2, Protein cereblon/Son of sevenless homolog 1 (Homo sapiens); assay: Protac activity at CRBN/SOS1 in human PANC-1 cells assessed as SOS1 degradation at 1 uM by Western blotting analysis; type: cell-based
[10] = biological target: T2, Protein cereblon/Son of sevenless homolog 1 (Homo sapiens); assay: Protac activity at CRBN/SOS1 in human PANC-1 cells assessed as SOS1 degradation at 10 uM by Western blotting analysis relative to control; type: cell-based
[11] = biological target: T1, von Hippel-Lindau disease tumor suppressor/Son of sevenless homolog 1; assay: Protac activity at VHL/SOS1 in human K562 cells assessed as SOS1 degradation incubated for 24 hrs by Western blotting analysis; type: cell-based
[12] = biological target: T1, von Hippel-Lindau disease tumor suppressor/Son of sevenless homolog 1; assay: Protac activity at VHL/SOS1 in human MIA PaCa-2 cells assessed as SOS1 degradation incubated for 24 hrs by Western blotting analysis; type: cell-based
[13] = biological target: T1, von Hippel-Lindau disease tumor suppressor/Son of sevenless homolog 1; assay: Protac activity at VHL/SOS1 in human NCI-H358 cells assessed as SOS1 degradation incubated for 24 hrs by Western blotting analysis; type: cell-based
[14] = biological target: T1, von Hippel-Lindau disease tumor suppressor/Son of sevenless homolog 1; assay: Protac activity at VHL/SOS1 in human PANC-1 cells assessed as SOS1 degradation incubated for 24 hrs by Western blotting analysis; type: cell-based

Activity [1] [%]	Activity [2] [%]	Activity [3] [%]	Activity [4] [%]	Compound	also measured
24.4	0	31.6	0	COc1cc2nc(C)nc(N[C@H](C)c3cc(-c4ccccc4CNCCCCCCCCC(=O)N[C@H](C(=O)N4C[C@H](O)C[C@H]4C(=O)NCc4ccc(-c5scnc5C)cc4)C(C)(C)C)cs3)c2cc1OC	–
–	–	–	–	COc1cc2nc(C)nc(N[C@H](C)c3cc(N)cc(C(F)(F)F)c3)c2cc1O[C@H]1CCOC1	IC50 [5]: 1420 nM; IC50 [6]: 29 nM
0	0	0	22.5	CNCc1ccccc1-c1csc([C@@H](C)Nc2nc(C)nc3cc(OC)c(OCCCCCC(=O)N[C@H](C(=O)N4C[C@H](O)C[C@H]4C(=O)NCc4ccc(-c5scnc5C)cc4)C(C)(C)C)cc23)c1	–
–	–	–	–	COc1cc2nc(C)nc(N[C@H](C)c3cc(-c4ccccc4CNCCCCCCNc4ccc5c(c4)C(=O)N(C4CCC(=O)NC4=O)C5=O)cs3)c2cc1OC (stereo partly specified)	Activity [7]: 0%; Activity [8]: 37.7%; Activity [9]: 0%; Activity [10]: 0%
0	8.8	32.9	27.5	CNCc1ccccc1-c1csc([C@@H](C)Nc2nc(C)nc3cc(OC)c(OCCCCC(=O)N[C@H](C(=O)N4C[C@H](O)C[C@H]4C(=O)NCc4ccc(-c5scnc5C)cc4)C(C)(C)C)cc23)c1	–
49.8	29.1	0	0	COc1cc2nc(C)nc(N[C@H](C)c3cc(-c4ccccc4CNCCCN4CCC(C(=O)N[C@H](C(=O)N5C[C@H](O)C[C@H]5C(=O)NCc5ccc(-c6scnc6C)cc5)C(C)(C)C)CC4)cs3)c2cc1OC	–
14.3	0	–	27	CNCc1ccccc1-c1csc([C@@H](C)Nc2nc(C)nc3cc(OC)c(OCCCCCCCC(=O)N[C@H](C(=O)N4C[C@H](O)C[C@H]4C(=O)NCc4ccc(-c5scnc5C)cc4)C(C)(C)C)cc23)c1	–
0	0	0	0	COc1cc2nc(C)nc(N[C@H](C)c3cc(N)cc(C(F)(F)F)c3)c2cc1OCCCC(=O)N[C@H](C(=O)N1C[C@H](O)C[C@H]1C(=O)NCc1ccc(-c2scnc2C)cc1)C(C)(C)C	–
0	0	0	0	COc1cc2nc(C)nc(N[C@H](C)c3cc(N)cc(C(F)(F)F)c3)c2cc1OCCCCCC(=O)N[C@H](C(=O)N1C[C@H](O)C[C@H]1C(=O)NCc1ccc(-c2scnc2C)cc1)C(C)(C)C	–
0	8.4	18.7	2.3	CNCc1ccccc1-c1csc([C@@H](C)Nc2nc(C)nc3cc(OC)c(C4=CCN(C(=O)CCCC(=O)N[C@H](C(=O)N5C[C@H](O)C[C@H]5C(=O)NCc5ccc(-c6scnc6C)cc5)C(C)(C)C)CC4)cc23)c1	–
19.6	23	0	0	COc1cc2nc(C)nc(N[C@H](C)c3cc(-c4ccccc4CNCC4CCN(CC5CCN(C(=O)CC(=O)N[C@H](C(=O)N6C[C@H](O)C[C@H]6C(=O)NCc6ccc(-c7scnc7C)cc6)C(C)(C)C)CC5)CC4)cs3)c2cc1OC	–
5.8	0	25.3	0	COc1cc2nc(C)nc(N[C@H](C)c3cc(-c4ccccc4CNCCCCCCCCCC(=O)N[C@H](C(=O)N4C[C@H](O)C[C@H]4C(=O)NCc4ccc(-c5scnc5C)cc4)C(C)(C)C)cs3)c2cc1OC	–
0	0	–	34.7	CNCc1ccccc1-c1csc([C@@H](C)Nc2nc(C)nc3cc(OC)c(OCCCCCCCCC(=O)N[C@H](C(=O)N4C[C@H](O)C[C@H]4C(=O)NCc4ccc(-c5scnc5C)cc4)C(C)(C)C)cc23)c1	–
3.4	27	0	0	COc1cc2nc(C)nc(N[C@H](C)c3cc(N)cc(C(F)(F)F)c3)c2cc1OCCCCCCC(=O)N[C@H](C(=O)N1C[C@H](O)C[C@H]1C(=O)NCc1ccc(-c2scnc2C)cc1)C(C)(C)C	–
0	0	0	0	COc1cc2nc(C)nc(N[C@H](C)c3cc(-c4ccccc4CNCCC4CCN(C(=O)CC(=O)N[C@H](C(=O)N5C[C@H](O)C[C@H]5C(=O)NCc5ccc(-c6scnc6C)cc5)C(C)(C)C)CC4)cs3)c2cc1OC	–
–	–	–	–	COc1cc2nc(C)nc(C[C@H](C)c3cc(-c4ccccc4CNCCCCCCCCCNc4ccc5c(c4)C(=O)N(C4CCC(=O)NC4=O)C5=O)cs3)c2cc1OC (stereo partly specified)	Activity [7]: 0%; Activity [8]: 89.1%; Activity [9]: 10.3%; Activity [10]: 0%
0	5.6	6.7	18.9	CNCc1ccccc1-c1csc([C@@H](C)Nc2nc(C)nc3cc(OC)c(C4=CCN(C(=O)CCC(=O)N[C@H](C(=O)N5C[C@H](O)C[C@H]5C(=O)NCc5ccc(-c6scnc6C)cc5)C(C)(C)C)CC4)cc23)c1	–
–	–	–	–	COc1cc2nc(C)nc(N[C@H](C)c3cc(-c4ccccc4CNCCCCCCCNc4ccc5c(c4)C(=O)N(C4CCC(=O)NC4=O)C5=O)cs3)c2cc1OC (stereo partly specified)	Activity [7]: 35.4%; Activity [8]: 72.1%; Activity [9]: 0%; Activity [10]: 3.4%
0	0	21.8	28.1	CNCc1ccccc1-c1csc([C@@H](C)Nc2nc(C)nc3cc(OC)c(OCCCCCCC(=O)N[C@H](C(=O)N4C[C@H](O)C[C@H]4C(=O)NCc4ccc(-c5scnc5C)cc4)C(C)(C)C)cc23)c1	–
30.2	0	28.3	16.6	CNCc1ccccc1-c1csc([C@@H](C)Nc2nc(C)nc3cc(OC)c(C4=CCN(C(=O)CCCCC(=O)N[C@H](C(=O)N5C[C@H](O)C[C@H]5C(=O)NCc5ccc(-c6scnc6C)cc5)C(C)(C)C)CC4)cc23)c1	–
11	13.2	0	0	COc1cc2nc(C)nc(N[C@H](C)c3cc(-c4ccccc4CNCCCCCC(=O)N[C@H](C(=O)N4C[C@H](O)C[C@H]4C(=O)NCc4ccc(-c5scnc5C)cc4)C(C)(C)C)cs3)c2cc1OC	–
12.7	0	58.9	27.4	COc1cc2nc(C)nc(N[C@H](C)c3cc(-c4ccccc4CNCCCCCCCC(=O)N[C@H](C(=O)N4C[C@H](O)C[C@H]4C(=O)NCc4ccc(-c5scnc5C)cc4)C(C)(C)C)cs3)c2cc1OC	–
0	26	0	0	COc1cc2nc(C)nc(N[C@H](C)c3cc(-c4ccccc4CNCC4CCN(C(=O)CC(=O)N[C@H](C(=O)N5C[C@H](O)C[C@H]5C(=O)NCc5ccc(-c6scnc6C)cc5)C(C)(C)C)CC4)cs3)c2cc1OC	–
0	28.8	0	0	COc1cc2nc(C)nc(N[C@H](C)c3cc(N)cc(C(F)(F)F)c3)c2cc1OCCCCCCCC(=O)N[C@H](C(=O)N1C[C@H](O)C[C@H]1C(=O)NCc1ccc(-c2scnc2C)cc1)C(C)(C)C	–
75.1	44	80.1	18.9	COc1cc2nc(C)nc(N[C@H](C)c3cc(-c4ccccc4CNCCCCCCC(=O)N[C@H](C(=O)N4C[C@H](O)C[C@H]4C(=O)NCc4ccc(-c5scnc5C)cc4)C(C)(C)C)cs3)c2cc1OC	Activity [11]: Dose-Dependent Effect; DC50 [11]: 776 nM; Activity [12]: Dose-Dependent Effect; DC50 [12]: 870 nM; Activity [13]: Dose-Dependent Effect; DC50 [13]: 910 nM; Activity [14]: Dose-Dependent Effect; DC50 [14]: 701 nM
21.5	28.2	0	0	COc1cc2nc(C)nc(N[C@H](C)c3cc(N)cc(C(F)(F)F)c3)c2cc1OCCCCCCCCC(=O)N[C@H](C(=O)N1C[C@H](O)C[C@H]1C(=O)NCc1ccc(-c2scnc2C)cc1)C(C)(C)C	–
0	48.3	0	0	COc1cc2nc(C)nc(N[C@H](C)c3cc(N)cc(C(F)(F)F)c3)c2cc1OCCCCCCCCCC(=O)N[C@H](C(=O)N1C[C@H](O)C[C@H]1C(=O)NCc1ccc(-c2scnc2C)cc1)C(C)(C)C	–
–	–	–	–	COc1cc2nc(C)nc(N[C@H](C)c3cc(-c4ccccc4CNCCCCCCCCNc4ccc5c(c4)C(=O)N(C4CCC(=O)NC4=O)C5=O)cs3)c2cc1OC (stereo partly specified)	Activity [7]: 35.6%; Activity [8]: 46.7%; Activity [9]: 1.3%; Activity [10]: 0%
